From US4920119A, “Triazine derivatives” (Hoffmann-La Roche Inc., priority 1986, dated 1990) come the findings set out here.

The target of this experiment is T1, Xanthine oxidase (Rattus norvegicus, UniProt P22985).
T1 construct: Xanthine oxidase was obtained from rat liver; from tissue; host or cells: rat liver
The experiment can be described thus: xanthine oxidase inhibiting activity (xanthine oxidase-catalyzed oxidation of xanthine to uric acid). The class given is biochemical. Conditions: xanthine oxidase from rat liver; 10^-5 molar xanthine, 0.1M tris hydrochloride pH 8.1, 30° C., uric acid formation at 293 nm. On the procedure:
Xanthine oxidase was obtained from rat liver according to the method described by E. Della Corte and F. Stirpe in Biochem.J. 117, 97 (1970) and was aged for at least 24 hours prior to use. Solutions of 3 ml of 0.1M aqueous tris hydrochloride buffer (pH 8.1) containing 10^-5 molar xanthine were treated with 200 μl of xanthine oxidase dissolved in 0.1M aqueous tris hydrochloride buffer (pH 8.1) and incubated at 30° C. in the presence and absence of a test substance, whereupon the formation of uric acid from xanthine was monitored by measuring the light absorption at 293 nm. The IC50 , namely that concentration of a test substance required to inhibit by 50% the xanthine oxidase-catalyzed oxidation of xanthine to uric acid, was then determined.

SMILES strings stand for the structures.

T1 sequence (P22985 whole entry): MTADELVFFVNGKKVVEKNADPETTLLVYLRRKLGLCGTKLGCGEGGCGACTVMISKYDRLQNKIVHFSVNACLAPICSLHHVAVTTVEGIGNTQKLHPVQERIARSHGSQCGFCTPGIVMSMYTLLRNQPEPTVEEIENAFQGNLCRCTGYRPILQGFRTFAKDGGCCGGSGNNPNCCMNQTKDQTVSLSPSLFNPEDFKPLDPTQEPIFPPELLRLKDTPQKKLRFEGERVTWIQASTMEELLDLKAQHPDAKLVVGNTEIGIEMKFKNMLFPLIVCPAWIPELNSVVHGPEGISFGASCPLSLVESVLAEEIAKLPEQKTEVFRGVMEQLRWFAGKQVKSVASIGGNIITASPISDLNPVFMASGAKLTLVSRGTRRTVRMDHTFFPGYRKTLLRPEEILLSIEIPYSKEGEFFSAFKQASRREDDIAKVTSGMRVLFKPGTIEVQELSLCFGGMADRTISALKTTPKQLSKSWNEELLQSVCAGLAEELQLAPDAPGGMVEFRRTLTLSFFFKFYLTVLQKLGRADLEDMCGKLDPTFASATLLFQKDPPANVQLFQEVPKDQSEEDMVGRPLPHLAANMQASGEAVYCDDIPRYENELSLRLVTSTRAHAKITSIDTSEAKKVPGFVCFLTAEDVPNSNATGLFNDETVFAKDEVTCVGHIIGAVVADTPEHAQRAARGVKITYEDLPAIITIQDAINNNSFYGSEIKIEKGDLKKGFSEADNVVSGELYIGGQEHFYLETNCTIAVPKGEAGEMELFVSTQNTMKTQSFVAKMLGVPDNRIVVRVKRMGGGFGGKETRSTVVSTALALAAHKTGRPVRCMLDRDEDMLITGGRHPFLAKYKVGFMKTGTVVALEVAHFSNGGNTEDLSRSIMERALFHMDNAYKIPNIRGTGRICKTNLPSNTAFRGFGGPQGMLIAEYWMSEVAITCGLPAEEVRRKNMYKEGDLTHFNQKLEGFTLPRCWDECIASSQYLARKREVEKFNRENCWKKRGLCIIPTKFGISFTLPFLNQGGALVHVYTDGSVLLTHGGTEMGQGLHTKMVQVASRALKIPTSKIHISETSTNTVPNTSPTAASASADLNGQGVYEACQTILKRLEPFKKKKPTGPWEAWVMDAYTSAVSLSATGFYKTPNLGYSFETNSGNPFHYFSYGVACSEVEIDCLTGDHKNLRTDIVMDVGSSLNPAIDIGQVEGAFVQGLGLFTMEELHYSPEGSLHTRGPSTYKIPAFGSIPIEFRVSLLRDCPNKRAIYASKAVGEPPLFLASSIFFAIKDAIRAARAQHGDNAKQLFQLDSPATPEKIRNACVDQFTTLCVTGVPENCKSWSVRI

On to `O=c1[nH]nnc2c1cnn2-c1cccc(C(F)(F)F)c1` [7-(3-Trifluoromethylphenyl)-7H-pyrazolo[3,4-d]-1,2,3-triazin-4(3H)-one], for which the midpoint of inhibition, the IC50, lay at 35 nM.

Regarding `COc1ccc(-n2ncc3c(=O)[nH]nnc32)cc1Cl` [7-(3-chloro-4-methoxyphenyl)-7H-pyrazolo[3,4-d]-1,2,3-triazin-4(3H)-one], it took 6 nM to reach half-maximal inhibition (IC50). Compared with the last molecule, the IC50 is about 5.8-fold lower.

Consider `COc1ccc(-c2nsc3c(=O)[nH]nnc23)cc1Cl` [7-(3-chloro-4-methoxyphenyl)isothiazolo[4,5-d]-1,2,3-triazin-4(3H)-one], for which the IC50 – broadly, the point on the concentration scale where inhibition reaches its midpoint – was 4 nM.

Regarding `COc1ccc(-c2nsc3c(=O)[nH]nnc23)cc1F` [7-(3-fluoro-4-methoxyphenyl)isothiazolo[4,5-d]-1,2,3-triazin-4(3H)-one], the IC50 worked out at 8 nM.

In turn, `COc1ccc(-c2nsc3c(=O)[nH]nnc23)cc1C(F)(F)F` [7-(3-trifluoromethyl-4-methoxyphenyl)isothiazolo[4,5-d]-1,2,3-triazin-4(3H)-one] registered an IC50 of 4 nM.

Molecule `CC(=O)Nc1ccc(-c2nsc3c(=O)[nH]nnc23)cc1` [7-(4-acetamidophenyl)isothiazolo[4,5-d]-1,2,3-triazin-4(3H)-one] came in with an IC50 of 7 nM. This IC50 is about 1.8-fold higher than that of the molecule before.

For the molecule `CSc1ccc(-n2ncc3c(=O)[nH]nnc32)cc1` [7-(4-methylthiophenyl)-7H-pyrazolo[3,4-d]-1,2,3-triazin-4(3H)-one], the IC50 came to 18 nM. Compared with the last molecule, the IC50 is about 2.6-fold higher.

With `O=c1[nH]nnc2c(-c3cccc(C(F)(F)F)c3)nccc12` [8-(3-trifluoromethylphenyl)pyrido[3,4-d]-1,2,3-triazin-4(3H)-one], the midpoint of inhibition, the IC50, lay at 48 nM.
